Data published in US20220047551A1, “PHARMACEUTICAL AGENT FOR TREATING AMYOTROPHIC LATERAL SCLEROSIS OR SUPPRESSING DISEASE PROGRESS THEREOF” (Mitsubishi Tanabe Pharma Corporation, priority 2011, published 2022).

System: patients with amyotrophic lateral sclerosis
Test: Placebo-controlled clinical test in amyotrophic lateral sclerosis patients, measured in terms of ALSFRS-R
Format: in vivo, human
Experimental: 199 patients with amyotrophic lateral sclerosis who complied with the following selection standards were divided into an actual drug administration group consisting of 100 patients and a placebo administration group of 99 patients:
With regard to the actual drug administration group, two ampules of “Radicut (registered trademark), Injection 30 mg” (containing 30 mg of 3-methyl-1-phenyl-2-pyrazolin-5-one; manufactured and distributed by Mitsubishi Tanabe Pharma Corporation) were diluted with a suitable amount of normal saline before the use, and the thus prepared solution was intravenously administered to the patients by drops over 60 minutes once a day. On the other hand, with regard to the placebo administration group, only normal saline was administered to the patients in the same manner as for the actual drug administration group.
The administration period was divided into first to sixth courses. The first course consisted of a continuous 14-day administration period and the subsequent drug holiday period for 14 days in which drug administration was not carried out. In the second to sixth courses, 1 set consisting of an administration period for a total of 10 out of 14 days and the subsequent 14-day drug holiday period was repeated 5 times.
Before initiation of the drug administration in the first course, and upon termination of the drug holiday periods in the first, second, third, fourth, fifth and sixth courses, the 199 patients were measured in terms of ALSFRS-R. Among the 199 patients, some patients were dropped out from the test during a period after initiation of the administration in the fourth course and before termination of the drug holiday period in the sixth course. In the case of these drop-out patients, the ALSFRS-R score measured immediately before dropping out from the test was considered to be the score upon termination of the drug holiday period in the sixth course, and it was used in the analysis.
A difference between the ALSFRS-R scores between before initiation of the administration in the first course and upon termination of the drug holiday period in the sixth course is shown below.
Subsequently, the 199 patients were divided into the following (1) to (7):
(1) patients who were determined to be “Definite ALS” or “Probable ALS” according to the revised El Escorial (Airlie House) diagnostic criteria; (2) patient who were determined to be “Definite ALS” according to the revised El Escorial (Airlie House) diagnostic criteria; (3) patients who scored two or more points from all items constituting the ALSFRS-R; (4) patients whose % FVC was 80% or more; (5) patients who scored two or more points from all items constituting the ALSFRS-R and whose % FVC was 80% or more; (6) patients who were determined to be “Definite ALS” or “Probable ALS” according to the revised El Escorial (Airlie House) diagnostic criteria, scored two or more points from all items constituting the ALSFRS-R, and whose % FVC was 80% or more; and (7) patients who were determined to be “Definite ALS” according to the revised El Escorial (Airlie House) diagnostic criteria, scored two or more points from all items constituting the ALSFRS-R, and whose % FVC was 80% or more. With regard to the thus specified patients (1) to (7), differences in the ALSFRS-R scores between before the administration in the first course and upon termination of the drug holiday period in the sixth course are shown below.

CC1=NN(c2ccccc2)C(=O)C1 [Actual drug, 3-methyl-1-phenyl-2-pyrazolin-5-one]
Between-group difference in ALSFRS-R score change (actual drug vs placebo) ((1) Definite ALS or Probable ALS): 1.2 points
Before-and-after difference in ALSFRS-R score ((1) Definite ALS or Probable ALS, before first course vs end of sixth course): −5.7 points
Between-group difference in ALSFRS-R score change (actual drug vs placebo) ((2) Definite ALS): 2.0 points
Before-and-after difference in ALSFRS-R score ((2) Definite ALS, before first course vs end of sixth course): −6.7 points
Between-group difference in ALSFRS-R score change (actual drug vs placebo) ((3) two or more points from all items constituting ALSFRS-R): 1.6 points
Before-and-after difference in ALSFRS-R score ((3) two or more points from all items constituting ALSFRS-R, before first course vs end of sixth course): −4.7 points
Between-group difference in ALSFRS-R score change (actual drug vs placebo) ((4) 80% or more % FVC): 1.3 points
Before-and-after difference in ALSFRS-R score ((4) 80% or more % FVC, before first course vs end of sixth course): −3.9 points
Between-group difference in ALSFRS-R score change (actual drug vs placebo) ((5) two or more points from all ALSFRS-R items and 80% or more % FVC): 2.5 points
Before-and-after difference in ALSFRS-R score ((5) two or more points from all ALSFRS-R items and 80% or more % FVC, before first course vs end of sixth course): −3.4 points
Between-group difference in ALSFRS-R score change (actual drug vs placebo) ((6) Definite ALS or Probable ALS, two or more points from all ALSFRS-R items, and 80% or more % FVC): 3.7 points
Before-and-after difference in ALSFRS-R score ((6) Definite ALS or Probable ALS, two or more points from all ALSFRS-R items, and 80% or more % FVC, before first course vs end of sixth course): −3.8 points
Between-group difference in ALSFRS-R score change (actual drug vs placebo) ((7) Definite ALS, two or more points from all ALSFRS-R items, and 80% or more % FVC): 6.4 points
Before-and-after difference in ALSFRS-R score ((7) Definite ALS, two or more points from all ALSFRS-R items, and 80% or more % FVC, before first course vs end of sixth course): −4.6 points
Between-group difference in ALSFRS-R score change (actual drug vs placebo) (all patients (not specified)): 0.7 points
Before-and-after difference in ALSFRS-R score (all patients (not specified), before first-course administration vs end of sixth-course drug holiday, 60 mg i.v. drops over 60 min once a day): −5.3 points
Comparison with the placebo administration group (ALSFRS-R difference) (patient groups (5) to (7)): significant difference
Reduction of the risk of death or tracheostomy (specific patients (1) to (7), extrapolated from 7% risk per 1 point ALSFRS-R (Neurology 2005; 64: 38-43)): ≥ 3.5%
